pIC50: −log10 of the molar value.
Experiments:
[1] = molecular target: T1, Glutamate NMDA receptor (Rattus norvegicus) (UniProt P35439+Q00959+Q00960+Q00961+Q62645+Q8VHN2+Q9R1M7); assay: Displacement of [3H]glycine from NMDA receptor of rat cortical membranes; type: cell membranes; parameters: concentration or dose not given beside the values; settings: Membrane, concentration not given here
[2] = molecular target: Glutamate receptor ionotropic, AMPA (Rattus norvegicus) (UniProt P19491+P19492+P19493+P19490); assay: Displacement of [3H]AMPA from AMPA receptor of rat cortical membranes; type: cell membranes; parameters: concentration or dose not given beside the values; settings: Membrane, concentration not given here
[3] = molecular target: Glutamate NMDA receptor; assay: Displacement of [3H]-glycine from NMDA receptor of rat cortical membranes; type: cell membranes, Membrane
[4] = molecular target: T1, Glutamate NMDA receptor (Rattus norvegicus); assay: Compound was evaluated for its ability to displace [3H]-glycine from rat cortical membranes at concentration 10 uM for NMDA receptor

| SMILES | inhibition [1] | inhibition [2] | pIC50 [3] | other results |
| --- | --- | --- | --- | --- |
| O=c1[nH]c2ccccc2cc1O | 29% | – | – | – |
| COC(=O)C(=O)c1c(O)c(O)nc2ccccc12 | – | 2.6% | 5.52 | – |
| O=C(O)c1c(O)c(O)nc2ccccc12 | 60% | – | – | – |
| CCOC(=O)C(=O)c1c(O)c(O)nc2ccccc12 | – | – | 4.92 | – |
| O=C(O)CCc1c(O)c(O)nc2ccccc12 | 25% | – | – | – |
| CCOC(=O)c1c(OC)c(O)nc2cc(Cl)c(Cl)cc12 | – | – | – | inhibition [4]: 0% |
| Oc1nc2ccc(Cl)c(Cl)c2c(Br)c1O | 23% | – | – | – |
| CNC(=O)C(=O)c1c(O)c(O)nc2cc(Cl)cc(Cl)c12 | – | 15% | 5.42 | – |
| COC(=O)C(=O)c1c(O)c(O)nc2cc(Cl)cc(Cl)c12 | – | 28% | 6.82 | – |
| CCOC(=O)c1c(O)c(O)nc2ccc(Cl)c(Cl)c12 | 38% | – | – | – |
| O=C(NCc1ccccc1)c1c(O)c(O)nc2ccccc12 | 40% | – | – | – |
| CCOC(=O)c1c(OC)c(O)nc2cc(Cl)cc(Cl)c12 | – | – | – | inhibition [4]: 5% |
| Oc1nc2cc(Cl)cc(Cl)c2c(Br)c1O | – | 41% | 5.55 | – |
| CCOC(=O)C(=O)c1c(O)c(O)nc2cc(Cl)cc(Cl)c12 | – | 56% | 7.54 | – |
| Oc1nc2ccccc2c(Br)c1O | 59% | – | – | – |
| Oc1nc2ccc(Cl)c(Cl)c2c(Cl)c1O | 20% | – | – | – |
| CCOC(=O)c1c(OC)c(O)nc2ccccc12 | – | – | – | inhibition [4]: 0% |
| CCOC(=O)c1c(O)c(O)nc2cc(Cl)c(Cl)cc12 | 43% | – | – | – |
| O=C(O)/C=C/c1c(O)c(O)nc2ccccc12 | 43% | – | – | – |
| Oc1cc2c(Cl)cc(Cl)cc2nc1O | 29% | – | – | – |
| COc1ccc(NC(=O)c2c(O)c(O)nc3ccccc23)cc1OC | 0% | – | – | – |
| O=C(Nc1ccccc1)C(=O)c1c(O)c(O)nc2cc(Cl)cc(Cl)c12 | – | 40% | 6.12 | – |
| Oc1nc2cc(Cl)cc(Cl)c2c(Cl)c1O | – | 48% | 5.35 | – |
| CCOC(=O)/C=C/c1c(O)c(O)nc2ccccc12 | 11% | – | – | – |
| Oc1nc2ccccc2c(Cl)c1O | – | – | 5.85 | – |
| CCOC(=O)c1c(O)c(O)nc2ccccc12 | 50% | – | – | – |
| O=C(O)C(=O)c1c(O)c(O)nc2ccccc12 | – | 31.9% | 5.74 | – |
| Oc1cc2c(Cl)c(Cl)ccc2nc1O | 0% | – | – | – |
| CCOC(=O)c1c(O)c(O)nc2cc(Cl)cc(Cl)c12 | – | – | 7.21 | – |
| O=C(O)C(=O)c1c(O)c(O)nc2cc(Cl)cc(Cl)c12 | – | 63% | 6.28 | – |
